Laboratory results as given in publication PMC12720774, “Detergents alter the stability and lipid binding properties of the CD1d immunoreceptor” (Protein Science : A Publication of the Protein Society, 2025).
Values joined by “and” are separate entries in the source; they are usually repeats but may differ in a detail not shown here. Identical values can stand only once.

Tests used:
CD1c = tested on: CD1c; set-up: method as in Mansour et al., 2016; conditions: ref Mansour et al., 2016; cited from earlier work
[1] = target: T1, CSP 319‐328/HLA‐B*08:01/hβ2M complex (Homo sapiens, UniProt P01889, A93T/A95T/D138N/E176V/E187T/K202T/Q94N/R180D/S35A/V36M/Y33D/Y91F); test: ITF with peptide/HLA complex; format: binding; conditions: for ITF change in Trp fluorescence (F-F0/F0): peptide/HLA with ODG, replicates
T1 construct: made in house
Description: (§1) To determine whether detergent effects were specific to hCD1d, we performed analogous ITF, MST, and nanoDSF experiments with a peptide/HLA complex. HLA‐B*08:01, presenting the Plasmodium falciparum derived peptide […] ([…]), was selected as a representative model system since the peptide antigen contains hydrophilic solvent‐exposed residues in the antigen‐binding groove (Frooman et al., [2025]). Although structurally similar to that of hCD1d, HLA‐B*08:01 shares low sequence identity (Figure S10a). […] By nanoDSF, ODG caused minimal destabilization of either complex (ΔT m≈−0.2 to −0.8°C; Figure S10f). […] We posit that lipid‐specific unloading effects of detergent are due to either hydrophobic residues in the antigen binding groove (detergent‐CD1d interactions) and/or the hydrophobic nature of the lipid antigen (detergent‐lipid interactions).
(§2) For comparison with peptide/HLA molecules, we prepared recombinant CSP 319‐328/HLA‐B*08:01/hβ2M complex using in vitro refolding methods fully described previously (Frooman et al., [2025]). The peptide sequence for CSP 319–328 is […]. This peptide was chosen since it contains Lys, Gln, and Asp residues predicted to be solvent‐exposed in the HLA‐B*08:01 binding groove (Frooman et al., [2025]).
ITF experiments with peptide/HLA molecules and detergents were performed using an analogous protocol.

[2] = target: T1, CSP 319‐328/HLA‐B*08:01/hβ2M complex; test: MST with peptide/HLA complex; format: binding; conditions: for MST normalized fluorescence signal (Fnorm): peptide/HLA with ODG, replicates
Description: as §1, §2
MST experiments with peptide/HLA molecules and detergents were performed using an analogous protocol.

[3] = target: T1, CSP 319‐328/HLA‐B*08:01/hβ2M complex; test: nanoDSF with peptide/HLA complex; format: binding; conditions: for nanoDSF melting temperature of peptide/HLA: peptide/HLA with ODG, replicates
Description: as §1, §2
NanoDSF experiments with peptide/HLA molecules and detergents were performed using an analogous protocol.

[4] = concentration 0.00625 (unit not given)
[5] = concentration 0.0125 (unit not given)
[6] = concentration 0.025 (unit not given)

SMILES: C[C@H](CCC(=O)NCCC[N+](C)(C)CCCS(=O)(=O)[O-])[C@H]1CC[C@H]2[C@@H]3[C@H](O)C[C@@H]4C[C@H](O)CC[C@]4(C)[C@H]3C[C@H](O)[C@]12C [CHAPS, 3‐((3‐cholamidopropyl) dimethylammonio)‐1‐propanesulfonate]
- stripping of lipid antigens from CD1c (in words) (CD1c): not

SMILES: CCCCCCCCO[C@@H]1O[C@H](CO)[C@@H](O)[C@H](O)[C@H]1O [ODG, n‐octyl‐β‐D‐glucopyranoside]
- ITF fluorescence change with peptide/HLA (in words) [1]: minimal concentration‐dependent fluorescence changes
- ITF change in Trp fluorescence (F-F0/F0) ([1]; concentration 1.53e-6 (unit not given)): 0
- ITF change in Trp fluorescence (F-F0/F0) ([1]; concentration 3.05e-6 (unit not given)): 0.00207 and -0.125 and -0.0308
- ITF change in Trp fluorescence (F-F0/F0) ([1]; concentration 6.1e-6 (unit not given)): 0.0103 and -0.142 and -0.0188
- ITF change in Trp fluorescence (F-F0/F0) ([1]; concentration 1.22e-5 (unit not given)): 0.0112 and -0.132 and -0.0414
- ITF change in Trp fluorescence (F-F0/F0) ([1]; concentration 2.44e-5 (unit not given)): 0.0406 and -0.126 and -0.0165
- ITF change in Trp fluorescence (F-F0/F0) ([1]; concentration 4.88e-5 (unit not given)): -0.113 and -0.0115 and 0.0922
- ITF change in Trp fluorescence (F-F0/F0) ([1]; concentration 9.77e-5 (unit not given)): -0.121 and -0.135 and 0.0848
- ITF change in Trp fluorescence (F-F0/F0) ([1]; concentration 0.000195 (unit not given)): 0.0173 and -0.126 and -0.052
- ITF change in Trp fluorescence (F-F0/F0) ([1]; concentration 0.000391 (unit not given)): 0.0313 and -0.107 and -0.0351
- ITF change in Trp fluorescence (F-F0/F0) ([1]; concentration 0.000781 (unit not given)): -0.0702 and -0.0972 and -0.0274
- ITF change in Trp fluorescence (F-F0/F0) ([1]; concentration 0.00156 (unit not given)): -0.063 and -0.0903 and -0.0215
- ITF change in Trp fluorescence (F-F0/F0) ([1]; concentration 0.00313 (unit not given)): 0.0779 and 0.0569 and 0.00937
- ITF change in Trp fluorescence (F-F0/F0) [1, 4]: 0.0158 and 0.129 and 0.219
- ITF change in Trp fluorescence (F-F0/F0) [1, 5]: 0.00491 and 0.00219 and 0.25
- ITF change in Trp fluorescence (F-F0/F0) [1, 6]: 0.118 and 0.242 and 0.374
- Kd ([2]; 100 nM AF647‐labeled peptide/HLA, 25°C, read-out: K D (MST), peptide/HLA): 3.97 ± 0.29 mM
- MST normalized fluorescence signal (Fnorm) ([2]; concentration 1.52588e-6 (unit not given)): 823.198 and 827.76 and 828.811
- MST normalized fluorescence signal (Fnorm) ([2]; concentration 3.05176e-6 (unit not given)): 822.943 and 827.867 and 830.525
- MST normalized fluorescence signal (Fnorm) ([2]; concentration 6.10352e-6 (unit not given)): 822.246 and 827.784 and 829.217
- MST normalized fluorescence signal (Fnorm) ([2]; concentration 1.2207e-5 (unit not given)): 822.018 and 826.127 and 829.204
- MST normalized fluorescence signal (Fnorm) ([2]; concentration 2.44141e-5 (unit not given)): 822.327 and 826.016 and 829.378
- MST normalized fluorescence signal (Fnorm) ([2]; concentration 4.88281e-5 (unit not given)): 822.531 and 826.781 and 828.529
- MST normalized fluorescence signal (Fnorm) ([2]; concentration 9.76563e-5 (unit not given)): 821.832 and 827.649 and 828.743
- MST normalized fluorescence signal (Fnorm) ([2]; concentration 0.000195313 (unit not given)): 821.404 and 825.833 and 828.951
- MST normalized fluorescence signal (Fnorm) ([2]; concentration 0.000390625 (unit not given)): 819.989 and 827.51 and 830.305
- MST normalized fluorescence signal (Fnorm) ([2]; concentration 0.00078125 (unit not given)): 822.464 and 828.227 and 831.061
- MST normalized fluorescence signal (Fnorm) ([2]; concentration 0.0015625 (unit not given)): 823.907 and 829.452 and 833.281
- MST normalized fluorescence signal (Fnorm) ([2]; concentration 0.003125 (unit not given)): 828.308 and 833.352 and 835.76
- MST normalized fluorescence signal (Fnorm) [2, 4]: 834.384 and 840.244 and 840.854
- MST normalized fluorescence signal (Fnorm) [2, 5]: 835.617 and 843.292 and 844.526
- MST normalized fluorescence signal (Fnorm) [2, 6]: 837.125 and 844.883 and 846.326
- MST normalized fluorescence signal (Fnorm) ([2]; concentration 0.05 (unit not given)): 838.274 and 844.594 and 846.629
- ΔT m (nanoDSF), peptide/HLA ([3]; absence vs maximum concentration of detergent, 1 μM peptide/HLA): −0.2 to −0.8 °C
- nanoDSF melting temperature of peptide/HLA ([3]; concentration 1.495 (unit not given)): 55.47 and 55.54 and 54.62
- nanoDSF melting temperature of peptide/HLA ([3]; concentration 2.991 (unit not given)): 55.33 and 55.34 and 55.32
- nanoDSF melting temperature of peptide/HLA ([3]; concentration 5.981 (unit not given)): 55.24 and 55.48 and 55.35
- nanoDSF melting temperature of peptide/HLA ([3]; concentration 11.96 (unit not given)): 55.41 and 55.18 and 55.09
- nanoDSF melting temperature of peptide/HLA ([3]; concentration 23.93 (unit not given)): 55.51 and 54.95 and 55.4
- nanoDSF melting temperature of peptide/HLA ([3]; concentration 47.85 (unit not given)): 55.44 and 54.77 and 55.24
- nanoDSF melting temperature of peptide/HLA ([3]; concentration 95.7 (unit not given)): 55.2 and 55.36 and 55.21
- nanoDSF melting temperature of peptide/HLA ([3]; concentration 191.4 (unit not given)): 55.5 and 55.26 and 55.22
- nanoDSF melting temperature of peptide/HLA ([3]; concentration 382.8 (unit not given)): 55.54 and 55.43 and 55.19
- nanoDSF melting temperature of peptide/HLA ([3]; concentration 765.6 (unit not given)): 55.29 and 55.05 and 54.95
- nanoDSF melting temperature of peptide/HLA ([3]; concentration 1531 (unit not given)): 55.13 and 55.03 and 54.92
- nanoDSF melting temperature of peptide/HLA ([3]; concentration 3063 (unit not given)): 54.91 and 54.34 and 54.94
- nanoDSF melting temperature of peptide/HLA ([3]; concentration 6125 (unit not given)): 53.87 and 53.91
- nanoDSF melting temperature of peptide/HLA ([3]; concentration 12500 (unit not given)): 51.99 and 52.51 and 52.34
- nanoDSF melting temperature of peptide/HLA ([3]; concentration 25000 (unit not given)): 50.57 and 50.47 and 50.7
- nanoDSF melting temperature of peptide/HLA ([3]; concentration 50000 (unit not given)): 50.26 and 49.92 and 50.62
